Measurements reported in patent US20030139331A1, “Treatment of cancer by reduction of intracellular energy and pyrimidines” (priority 2000, published 2003).
Entries after “also recorded” stand apart in the source; their conditions may differ.

How the values were obtained:
[1] = system: patients with disseminated cancer; settings: cited from earlier work
[2] = system: tumor ATP levels; settings: cited from earlier work
[3] = system: 1st passage tumor transplants of CD8F1 spontaneous breast tumors; experiment: Effect of MMPR + 6-AN + PALA on tumor ATP pools in CD8F1 mice; type: in vivo; parameters: tumor ATP levels 48 hours after treatment, % of normal (saline-treated control tumors) / 6 HR % Saline Control / 24 HR % Saline Control / 48 HR % Saline Control / 72HR % Saline Control / 6 HW % Saline Control: concentration or dose not given beside the values; settings: for tumor ATP levels 48 hours after treatment, % of normal (saline-treated control tumors): 48 hours after administration; for tumor ATP level, % of normal: murine breast tumors in vivo, time not stated in the sentence; for 6 HW % Saline Control: 6 hr; for 6 HR % Saline Control: tumor ATP 6 hr after i.p. injection
[4] = system: first passage CD8F1 advanced spontaneous breast tumors; experiment: in vivo; settings: for Regressions/Survivors: partial tumor regressions; for effect on tumor growth / anticancer activity (in words): advanced CD8F1 breast tumors in mice; for partial tumor regression (P.R.) rate: three pooled published experiments, MMPR, 6-AN, PALA alone and combined, P.R. = 50% or more tumor shrinkage, three courses, 1-week interval
Description: (§1) Table 1 evaluates Saline-treated controls (Group 1), 6-AN (Group 2) and DDP (Group 3) as single agents, and in combination (Group 4), against 1st generation subcutaneous solid tumor transplants of advanced CD8F, spontaneous breast tumors. In the same experiment (i.e., same tumor transplants), is a group adding 6-AN to PALA and MMPR (MAP, Group 5), as well as a group with MAP administered prior to DDP (Group 6).
(§2) Each experiment is from a different brei (i.e., each from a different group of 3-4 spontaneous tumors) and, therefore, each transplant group contained a different number of chemotherapeutically sensitive and/or resistant tumor cells.

[5] = system: murine breast cancers, colon tumors and leukemia, and human breast cancer xenografts; experiment: MAP plus anticancer agents in advanced tumor-bearing mice with a variety of tumor types; type: in vivo; settings: MAP co-administered with the named anticancer agent
Description: Summary of Preclinical Therapeutic Results with MAP+Cancer Chemotherapy—MAP+each of nine mechanistically-different apoptosis-inducing anticancer agents was administered to advanced tumor-bearing mice with a variety of tumor types (murine breast cancers, colon tumors and leukemia, and human breast cancer xenografts).

[6] = system: spontaneous, autochthonous CD8F1 breast tumors; experiment: Therapy of mice bearing spontaneous, autochthonous CD8F1 breast tumors; type: in vivo
Description: Anticancer Effect of MAP Alone in Spontaneous Murine Breast Tumors (Ref. 39)—Table 3 records that MAP produced a partial tumor regression rate of 38% in mice bearing large spontaneous, autochthonous breast tumors. There were 24 partial tumor regressions in 64 surviving mice with acceptable toxicity (4% mortality, 3 deaths in 67 treated mice). Spontaneous regression of these spontaneous breast cancers has never been observed.

[7] = in vivo; settings: CD8F1, mouse, in vivo
Description: as §1, §2

[8] = system: mouse lymphoma cells; settings: in vitro; cited from earlier work
[9] = system: human soft tissue sarcoma cell lines; experiment: Sensitivity of human soft tissue sarcoma cell lines to L-alanosine by MTAP status; type: cell-based; settings: cells lacking MTAP activity
Description: An examination of MTAP expression in ten human soft tissue sarcoma cell lines found MTAP not detectable in three of the ten cell lines. These three cell lines were greater than 10-fold more sensitive to L-alanosine than the cell lines containing MTAP. […] In vivo studies of L-alanosine+MMPR, as well as the addition of 6-AN, are being evaluated (82).
An examination of MTAP expression in ten human soft tissue sarcoma cell lines found MTAP not detectable in four of the ten cell lines. These four cell lines were sensitive to L-alanosine.

[10] = system: MDA-MB 468 human breast cancer xenografts; experiment: Taxotere with MAP or MAPAL in MDA-MB-468 human breast cancer xenografts; type: in vivo; settings: pyruvate for 1 day on the 5th day after each ATP-depleting treatment
[11] = system: MDA-MB 468 human breast cancer xenografts; experiment: as above; type: in vivo; settings: for PR (partial tumor regression): CR included in PR rate; for (CR) complete tumor regression: included in PR rate; for % Partial Regressions: tumors averaged 100 mg at initiation, label subscript = mg/kg
Description: Table 2 presents results one month after completing a q 2 week×3 schedule with Taxotere (TXT40 or TXT20; subscript=mg/kg), initiated in mice (10/grp) with subcutaneous advanced (100+mg) MDA-MB 468 breast cancer xenografts, are as follows: […]

[12] = seventh series copy of Table 1, 24 hr
[13] = seventh series copy of Table 1, 48 hr
[14] = seventh series copy of Table 1, 72 hr
[15] = tumor ATP 24 hr after i.p. injection, % of saline control
[16] = tumor ATP 48 hr after i.p. injection, % of saline control
[17] = tumor ATP 72 hr after i.p. injection, % of saline control
[18] = Exp.3069F, tumors averaged 80 mg at start, three i.p. courses at 10-11 day intervals, after third course
[19] = 69 days after initiating therapy, listed as TXT20
[20] = 69 days after initiating therapy, listed as Taxotere40

NC(=O)c1ccc(N)nc1 [6-AN, 6-aminonicotinamide]
dose of 6-AN determined to be safe in early clinical trials ([1]; for up to 28 consecutive days of treatment): 0.2 mg/kg/day
clinical forms of 6-AN toxicity ([1]; three Phase I trials, daily administration): at low dose a mixed B complex vitamin deficiency, and at high dose CNS toxicity; also recorded: a low dose mixed B complex vitamin deficiency, and a high dose-dependent CNS toxicity
toxicity of in vivo schedules ([2]; 6-AN 10 mg/kg q 3 hours x 3 on days 1,3,5 or continuous infusion): too toxic
tumor ATP levels, % of normal ([2]; single dose of 6-AN alone at 10 mg/kg, different tumor model): 75-80%
tumor ATP levels 48 hours after treatment, % of normal (saline-treated control tumors) [3]: 69%
tumor ATP level, % of normal [3]: 75%
tumor ATP level, % of normal ([3]; listed as 6-Aminonicotinamide): 69%
6 HW % Saline Control ([3]; seventh series copy of Table 1): 77%
24 HR % Saline Control [3, 12]: 75%
48 HR % Saline Control [3, 13]: 69%
72HR % Saline Control [3, 14]: 169%
6 HR % Saline Control ([3]; % of saline control): 77%
24 HR % Saline Control [3, 15]: 75%
48 HR % Saline Control [3, 16]: 69%
72HR % Saline Control [3, 17]: 169%
% Weight Change ([4]; Exp.3069F, after third course): +6%
Dead/Total ([4]; Exp.3069F, after third course): 3/10
Regressions/Survivors ([4]; Exp.3069F, after third course): 0/7
Av. Tumor W't (mg) [4, 18]: 1,765 mg
effect on tumor growth / anticancer activity (in words) [4]: tumor growth was inhibited
partial tumor regression (P.R.) rate [4]: no partial regressions

N.N.[Cl][Pt][Cl] [DDP, cisplatin]
enhancement of anticancer agent activity by co-administered MAP (in words) [5]: significantly enhance response rates
% Weight Change ([4]; Exp.3069F, after third course): −18%
Dead/Total ([4]; Exp.3069F, after third course): 1/10
Regressions/Survivors ([4]; Exp.3069F, after third course): 0/9
Av. Tumor W't [4, 18]: 850 mg
effect on tumor growth / anticancer activity (in words) [4]: limited to inhibition of tumor growth
effect on tumor growth / anticancer activity (in words) ([4]; listed as cisplatin): significantly inhibited tumor growth
Regressions/Survivors (%) ([4]; pooled five experiments, MAP ± DDP, one week after third course): produced no partial (i.e., greater than 50% shrinkage of tumors), or complete response
MTD (maximum tolerated dose) of the agent alone ([4]; single agent, 10-11 day schedule, tumor-bearing CD8F1 mice): 7 mg/kg

O=c1[nH]cc(F)c(=O)[nH]1 [FUra, 5-fluorouracil]
enhancement of anticancer agent activity by co-administered MAP (in words) [5]: significantly enhance response rates
regressions of spontaneous autochthonous breast tumors, FUra alone at 75 mg/kg ([6]; 75 mg/kg): less than 5%
PR rate, FUra alone at its MTD of 100 mg/kg ([6]; 100 mg/kg): ≤ 20%
MTD [7]: 100 mg/kg

N[C@@H](CN(O)N=O)C(=O)O [L-alanosine]
cell growth, % of control [8]: 59%
intracellular tumor cell ATP pool, % of normal (control) [8]: 63%

CSc1ncnc2c1ncn2[C@@H]1O[C@H](CO)[C@@H](O)[C@H]1O [MMPR, 6-methylmercaptopurine riboside]
effect of adding MMPR to L-alanosine (in words) [9]: further enhanced the sensitivity of the cells lacking MTAP activity to L-alanosine
cell growth, % of control [8]: 25%
intracellular tumor cell ATP pool, % of normal (control) [8]: 49%
tumor ATP levels 48 hours after treatment, % of normal (saline-treated control tumors) [3]: 34%
tumor ATP level, % of normal [3]: 34%
6 HW % Saline Control ([3]; seventh series copy of Table 1): 47%
24 HR % Saline Control [3, 12]: 47%
48 HR % Saline Control [3, 13]: 34%
72HR % Saline Control [3, 14]: 127%
6 HR % Saline Control ([3]; % of saline control): 47%
24 HR % Saline Control [3, 15]: 47%
48 HR % Saline Control [3, 16]: 34%
72HR % Saline Control [3, 17]: 127%
effect on tumor growth / anticancer activity (in words) [4]: tumor growth was inhibited
partial tumor regression (P.R.) rate [4]: no partial regressions

O=C(O)C[C@H](NC(=O)CP(=O)(O)O)C(=O)O [PALA, N-(phosphonacetyl)-L-aspartic acid]
effect on tumor ATP levels (in words) ([3]; low dose PALA): had no effect on ATP levels; also recorded: does not effect ATP depletion; also recorded: devoid of an ATP depleting effect; also recorded: does not affect ATP depletion; also recorded: neither reduces tumor ATP levels nor inhibits tumor growth
effect on tumor growth / anticancer activity (in words) [4]: not antitumor active; also recorded: does not have anticancer activity

N[C@@H](Cc1ccc(N(CCCl)CCCl)cc1)C(=O)O [PAM, phenylalanine mustard]
enhancement of anticancer agent activity by co-administered MAP (in words) [5]: significantly enhance response rates
Partial Regressions (%) ([4]; Table 6, MAP ± PAM): did not produce tumor regressions

CC(=O)C(=O)O [Pyruvate, pyruvate]
effect of pyruvate administration on treatment-induced weight loss / mortality [10]: diminishes the degree of weight loss
effect of pyruvate administration on treatment-induced weight loss / mortality ([10]; listed as pyruvate): Unacceptable mortality (e.g., 30%) is prevented

CC(=O)O[C@H]1C(=O)[C@@]2(C)[C@H]([C@H](OC(=O)c3ccccc3)[C@]3(O)C[C@H](OC(=O)[C@H](O)[C@@H](NC(=O)c4ccccc4)c4ccccc4)C(C)=C1C3(C)C)[C@]1(OC(C)=O)CO[C@@H]1C[C@@H]2O [Taxol, paclitaxel]
enhancement of anticancer agent activity by co-administered MAP (in words) [5]: significantly enhance response rates
MTD [7]: 80 mg/kg
PR/survivors (%) ([4]; Table 5, MAP ± taxol): no tumor regressions
effect on tumor growth / anticancer activity (in words) [4]: statistically significant inhibition of tumor growth

CC(=O)O[C@@]12CO[C@@H]1C[C@H](O)[C@@]1(C)C(=O)[C@H](O)C3=C(C)[C@@H](OC(=O)[C@H](O)[C@@H](NC(=O)OC(C)(C)C)c4ccccc4)C[C@@](O)([C@@H](OC(=O)c4ccccc4)[C@H]21)C3(C)C [Taxotere, taxotere]
PR (partial tumor regression) [11, 19]: 0%
PR (partial tumor regression) [11, 20]: 60%
Mortality ([11]; 69 days after initiating therapy, every 2 weeks x 3, 10-11 mice per group): 0%
(CR) complete tumor regression [11, 19]: (0%)
(CR) complete tumor regression [11, 20]: (10%)
NR (no tumor regression) [11, 19]: 100%
NR (no tumor regression) [11, 20]: 40%
tumor regressions with the single agent ([11]; MDA-MB-468 tumor model described as very sensitive): 90-100%
tumor regrowth beginning, days after the third and last injection ([11]; full (MTD) dose Taxotere, Group 1): 41 days
% Tumors Progressing ([11]; treatment q 2 weeks x 3, progressing tumors larger than P.R. tumors and growing): 0%
% Partial Regressions ([11]; treatment q 2 weeks x 3): 100%
% Partial Regressions ([11]; treatment q 2 weeks x 3, listed as Taxotere40): 100%
enhancement of anticancer agent activity by co-administered MAP (in words) [5]: significantly enhance response rates

O=P1(N(CCCl)CCCl)NCCCO1 (stereo not drawn) [cyclophosphamide]
enhancement of anticancer agent activity by co-administered MAP (in words) [5]: significantly enhance response rates

COc1cccc2c1C(=O)c1c(O)c3c(c(O)c1C2=O)C[C@@](O)(C(=O)CO)C[C@@H]3O[C@H]1C[C@H](N)[C@H](O)[C@H](C)O1 [doxorubicin]
enhancement of anticancer agent activity by co-administered MAP (in words) [5]: significantly enhance response rates

COc1cc([C@@H]2c3cc4c(cc3[C@@H](O[C@@H]3O[C@@H]5CO[C@@H](C)O[C@H]5[C@H](O)[C@H]3O)[C@H]3COC(=O)[C@H]23)OCO4)cc(OC)c1O [etoposide]
enhancement of anticancer agent activity by co-administered MAP (in words) [5]: significantly enhance response rates

CO[C@@]12[C@H](COC(N)=O)C3=C(C(=O)C(C)=C(N)C3=O)N1C[C@@H]1N[C@@H]12 [mitomycin C]
enhancement of anticancer agent activity by co-administered MAP (in words) [5]: significantly enhance response rates
